Where two headings read alike, the source gives them in different places.
How the values were obtained:
[1] = system: LNCaP prostate cancer cell; assay: LNCaP cell viability (CellTiter-Glo); type: cell-based; conditions: Homo sapiens, 72 h, LNCaP cell viability, 3 days, CellTiter-Glo
How it was run: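 CellTiter-Glo luminescence measured three days after dosing with a 12-point 3-fold compound dilution series. LNCaP cells seeded at 5000/well in RPMI 1640 with 10% FBS; data normalized to untreated controls and IC50 fitted by nonlinear least-squares regression.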

P300 = P300 (Homo sapiens, UniProt Q09472); assay: percentage of inhibition (degradation) of p300 at 10 nM, Tables 2-4; type: cell-based; design: LNCaP or 22RV1 cells that express CBP/P300 proteins were treated with GNE-781 or the bivalent compounds; endogenous in cells; host or cells: LNCaP or 22RV1 (not given); conditions: for inhibition at 0.01 µM: read-out: Degradation (10 nM)
Experimental: Cultured cells or tissue chunks were washed with cold PBS once and lysed in cold RIPA buffer supplemented with protease inhibitors and phosphatase inhibitors (Beyotime Biotechnology). The solutions were then incubated at 4° C. for 30 minutes with gentle agitation to fully lyse cells. Cell lysates were centrifuged at 13,000 rpm for 10 minutes at 4° C. and pellets were discarded. Total protein concentrations in the lysates were determined by BCA assays (Beyotime Biotechnology). Cell lysates were mixed with Laemmli loading buffer to 1 X and heated at 99° C. for 5 min. Proteins were resolved on SDS-PAGE and visualized by chemiluminescence. Images were taken by a ChemiDoc MP Imaging system (Bio-Rad). Protein bands were quantitated using the accompanied software provided by Bio-Rad.

Chain of P300 (Q09472 whole entry): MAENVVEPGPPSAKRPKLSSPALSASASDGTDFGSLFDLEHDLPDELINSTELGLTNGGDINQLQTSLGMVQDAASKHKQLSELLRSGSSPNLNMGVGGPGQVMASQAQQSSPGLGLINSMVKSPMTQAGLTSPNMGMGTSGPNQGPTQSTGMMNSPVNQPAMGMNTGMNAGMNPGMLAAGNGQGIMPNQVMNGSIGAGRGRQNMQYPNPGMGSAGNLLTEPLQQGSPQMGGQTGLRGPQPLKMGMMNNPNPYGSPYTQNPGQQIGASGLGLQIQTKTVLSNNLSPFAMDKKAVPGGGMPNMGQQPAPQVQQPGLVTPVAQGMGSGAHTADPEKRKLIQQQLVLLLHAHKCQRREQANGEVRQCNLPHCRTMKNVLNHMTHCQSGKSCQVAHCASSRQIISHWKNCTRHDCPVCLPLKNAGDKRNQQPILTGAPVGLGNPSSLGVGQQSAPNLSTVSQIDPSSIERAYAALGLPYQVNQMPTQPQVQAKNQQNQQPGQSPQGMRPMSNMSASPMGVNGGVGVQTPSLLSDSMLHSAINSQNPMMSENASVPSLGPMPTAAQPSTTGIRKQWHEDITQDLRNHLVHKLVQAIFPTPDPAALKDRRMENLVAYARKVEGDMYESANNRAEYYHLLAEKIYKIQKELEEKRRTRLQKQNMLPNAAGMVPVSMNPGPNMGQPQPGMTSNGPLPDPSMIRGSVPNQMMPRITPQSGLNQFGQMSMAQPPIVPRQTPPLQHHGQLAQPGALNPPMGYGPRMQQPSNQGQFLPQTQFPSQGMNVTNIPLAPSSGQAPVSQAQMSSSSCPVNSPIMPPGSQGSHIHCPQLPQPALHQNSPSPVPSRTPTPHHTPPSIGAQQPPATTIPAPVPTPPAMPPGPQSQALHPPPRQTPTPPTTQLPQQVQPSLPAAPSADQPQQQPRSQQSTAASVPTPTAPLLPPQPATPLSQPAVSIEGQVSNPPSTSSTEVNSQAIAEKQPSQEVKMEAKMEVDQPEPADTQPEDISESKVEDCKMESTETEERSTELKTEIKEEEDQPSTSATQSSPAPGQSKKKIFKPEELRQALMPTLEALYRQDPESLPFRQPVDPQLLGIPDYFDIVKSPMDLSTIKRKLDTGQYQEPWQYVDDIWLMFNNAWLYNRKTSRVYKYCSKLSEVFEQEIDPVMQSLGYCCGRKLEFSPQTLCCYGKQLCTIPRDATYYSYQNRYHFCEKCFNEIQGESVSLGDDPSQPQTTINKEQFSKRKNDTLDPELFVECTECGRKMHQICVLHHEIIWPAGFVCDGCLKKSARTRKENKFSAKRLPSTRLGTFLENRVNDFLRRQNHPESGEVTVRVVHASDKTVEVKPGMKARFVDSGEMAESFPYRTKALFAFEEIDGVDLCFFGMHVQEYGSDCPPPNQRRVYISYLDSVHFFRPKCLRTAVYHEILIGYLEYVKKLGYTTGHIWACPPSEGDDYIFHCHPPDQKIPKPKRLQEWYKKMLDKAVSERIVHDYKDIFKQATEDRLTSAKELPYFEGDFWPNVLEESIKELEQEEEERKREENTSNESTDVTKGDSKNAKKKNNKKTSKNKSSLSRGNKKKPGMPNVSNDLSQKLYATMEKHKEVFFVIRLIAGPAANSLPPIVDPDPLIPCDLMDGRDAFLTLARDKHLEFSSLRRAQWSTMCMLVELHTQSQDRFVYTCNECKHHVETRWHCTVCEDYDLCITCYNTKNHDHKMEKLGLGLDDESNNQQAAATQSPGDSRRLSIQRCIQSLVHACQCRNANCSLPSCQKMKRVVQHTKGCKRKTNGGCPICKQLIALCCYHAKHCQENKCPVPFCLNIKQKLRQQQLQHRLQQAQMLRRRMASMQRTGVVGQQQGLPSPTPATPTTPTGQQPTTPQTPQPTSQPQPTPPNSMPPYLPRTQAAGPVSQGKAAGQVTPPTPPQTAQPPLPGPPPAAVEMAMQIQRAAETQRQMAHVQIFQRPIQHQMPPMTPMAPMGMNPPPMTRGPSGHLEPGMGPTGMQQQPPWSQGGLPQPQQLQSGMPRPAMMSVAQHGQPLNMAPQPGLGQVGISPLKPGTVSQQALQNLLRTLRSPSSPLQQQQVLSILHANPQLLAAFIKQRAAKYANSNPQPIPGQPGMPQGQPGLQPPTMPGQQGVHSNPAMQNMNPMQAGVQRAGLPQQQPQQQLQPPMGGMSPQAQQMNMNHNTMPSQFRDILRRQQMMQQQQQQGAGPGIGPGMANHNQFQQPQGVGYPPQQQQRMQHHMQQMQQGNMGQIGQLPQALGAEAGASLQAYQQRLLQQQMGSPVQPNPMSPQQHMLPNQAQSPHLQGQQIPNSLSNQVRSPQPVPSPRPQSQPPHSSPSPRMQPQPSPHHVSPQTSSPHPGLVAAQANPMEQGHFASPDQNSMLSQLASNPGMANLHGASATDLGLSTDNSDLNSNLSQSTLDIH

IC50 ([1]; Table 4)	inhibition at 0.01 µM (P300; p300, 10 nM, Table 4)	SMILES	other results
0.8 nM	> 80%	CC(=O)N1CCc2c(c(N3CCCc4cc(-c5cnn(C)c5)c(C(F)F)cc43)nn2C2CCN(CCCN3CCC(CCc4ccc5c(c4)n(C)c(=O)n5C4CCC(=O)NC4=O)CC3)CC2)C1 (centres unmarked) [P-244, 3-(5-(2-(1-(3-(4-(5-acetyl-3-(7-(difluoromethyl)-6-(1-methyl-1H-pyrazol-4-yl)-3,4-dihydroquinolin-1(2H)-yl)-4,5,6,7-tetrahydro-1H-pyrazolo[4,3-c]pyridin-1-yl)piperidin-1-yl)propyl)piperidin-4-yl)ethyl)-3-methyl-2-oxo-2,3-dihydro-1H-benzo[d]imidazol-1-yl)piperidine-2,6-dione]	–
19.7 nM	> 80%	CC(=O)N1CCc2c(c(N3CCCc4cc(-c5cnn(C)c5)c(C(F)F)cc43)nn2C2CCN(C(=O)CCN3CCN(Cc4cccc5c4n(C)c(=O)n5C4CCC(=O)NC4=O)CC3)CC2)C1 (centres unmarked) [P-208, 3-(4-((4-(3-(4-(5-Acetyl-3-(7-(difluoromethyl)-6-(1-methyl-1H-pyrazol-4-yl)-3,4-dihydroquinolin-1(2H)-yl)-4,5,6,7-tetrahydro-1H-pyrazolo[4,3-c]pyridin-1-yl)piperidin-1-yl)-3-oxopropyl)piperazin-1-yl)methyl)-3-methyl-2-oxo-2,3-dihydro-1H-benzo[d]imidazol-1-yl)piperidine-2,6-dione]	–
33.1 nM	20 to 50%	CC(=O)N1CCc2c(c(N3CCCc4cc(-c5cnn(C)c5)c(C(F)F)cc43)nn2C2CCN(C(=O)CCCN3CCN(Cc4ccc5c(c4)n(C)c(=O)n5C4CCC(=O)NC4=O)CC3)CC2)C1 (centres unmarked) [P-215, 3-(5-((4-(4-(4-(5-Acetyl-3-(7-(difluoromethyl)-6-(1-methyl-1H-pyrazol-4-yl)-3,4-dihydroquinolin-1(2H)-yl)-4,5,6,7-tetrahydro-1H-pyrazolo[4,3-c]pyridin-1-yl)piperidin-1-yl)-4-oxobutyl)piperazin-1-yl)methyl)-3-methyl-2-oxo-2,3-dihydro-1H-benzo[d]imidazol-1-yl)piperidine-2,6-dione]	–
1.4 nM	> 80%	CC(=O)N1CCc2c(c(N3CCCc4cc(-c5cnn(C)c5)c(C(F)F)cc43)nn2C2CCN(C(=O)CCCN3CCC(CCc4ccc5c(c4)n(C)c(=O)n5C4CCC(=O)NC4=O)CC3)CC2)C1 (centres unmarked) [P-222, 3-(5-(2-(1-(4-(4-(5-acetyl-3-(7-(difluoromethyl)-6-(1-methyl-1H-pyrazol-4-yl)-3,4-dihydroquinolin-1(2H)-yl)-4,5,6,7-tetrahydro-1H-pyrazolo[4,3-c]pyridin-1-yl)piperidin-1-yl)-4-oxobutyl)piperidin-4-yl)ethyl)-3-methyl-2-oxo-2,3-dihydro-1H-benzo[d]imidazol-1-yl)piperidine-2,6-dione]	–
0.4 nM	> 80%	CC(=O)N1CCc2c(c(N3CCCc4cc(-c5cnn(C)c5)c(C(F)F)cc43)nn2C2CCN(C(=O)CCCN3CCC(C#Cc4cccc5c4n(C)c(=O)n5C4CCC(=O)NC4=O)CC3)CC2)C1 (centres unmarked) [P-229, 3-(4-((1-(4-(4-(5-acetyl-3-(7-(difluoromethyl)-6-(1-methyl-1H-pyrazol-4-yl)-3,4-dihydroquinolin-1(2H)-yl)-4,5,6,7-tetrahydro-1H-pyrazolo[4,3-c]pyridin-1-yl)piperidin-1-yl)-4-oxobutyl)piperidin-4-yl)ethynyl)-3-methyl-2-oxo-2,3-dihydro-1H-benzo[d]imidazol-1-yl)piperidine-2,6-dione]	–
18.7 nM	> 80%	CC(=O)N1CCc2c(c(N3CCCc4cc(-c5cnn(C)c5)c(C(F)F)cc43)nn2C2CCN(C(=O)CCN3CCC(CNc4ccc5c(c4)n(C)c(=O)n5C4CCC(=O)NC4=O)CC3)CC2)C1 (centres unmarked) [P-218, 3-(5-(((1-(3-(4-(5-Acetyl-3-(7-(difluoromethyl)-6-(1-methyl-1H-pyrazol-4-yl)-3,4-dihydroquinolin-1(2H)-yl)-4,5,6,7-tetrahydro-1H-pyrazolo[4,3-c]pyridin-1-yl)piperidin-1-yl)-3-oxopropyl)piperidin-4-yl)methyl)amino)-3-methyl-2-oxo-2,3-dihydro-1H-benzo[d]imidazol-1-yl)piperidine-2,6-dione]	–
26.8 nM	20 to 50%	CC(=O)N1CCc2c(c(N3CCCc4cc(-c5cnn(C)c5)c(C(F)F)cc43)nn2C2CCN(C(=O)CCN3CCN(Cc4ccc5c(c4)n(C)c(=O)n5C4CCC(=O)NC4=O)CC3)CC2)C1 (centres unmarked) [P-216, 3-(5-((4-(3-(4-(5-Acetyl-3-(7-(difluoromethyl)-6-(1-methyl-1H-pyrazol-4-yl)-3,4-dihydroquinolin-1(2H)-yl)-4,5,6,7-tetrahydro-1H-pyrazolo[4,3-c]pyridin-1-yl)piperidin-1-yl)-3-oxopropyl)piperazin-1-yl)methyl)-3-methyl-2-oxo-2,3-dihydro-1H-benzo[d]imidazol-1-yl)piperidine-2,6-dione]	–

More lines, now with the values behind:

SMILES	IC50 ([1]; Table 4)	inhibition at 0.01 µM (P300; p300, 10 nM, Table 4)	other results
CC(=O)N1CCc2c(c(N3CCCc4cc(-c5cnn(C)c5)c(C(F)F)cc43)nn2C2CCN(CCCN3CCC(C#Cc4ccc5c(c4)n(C)c(=O)n5C4CCC(=O)NC4=O)CC3)CC2)C1 (centres unmarked) [P-243, 3-(5-((1-(3-(4-(5-acetyl-3-(7-(difluoromethyl)-6-(1-methyl-1H-pyrazol-4-yl)-3,4-dihydroquinolin-1(2H)-yl)-4,5,6,7-tetrahydro-1H-pyrazolo[4,3-c]pyridin-1-yl)piperidin-1-yl)propyl)piperidin-4-yl)ethynyl)-3-methyl-2-oxo-2,3-dihydro-1H-benzo[d]imidazol-1-yl)piperidine-2,6-dione]	0.2 nM	> 80%	–
CC(=O)N1CCc2c(c(N3CCCc4cc(-c5cnn(C)c5)c(C(F)F)cc43)nn2C2CCN(CCN3CCC(C#Cc4cccc5c4n(C)c(=O)n5C4CCC(=O)NC4=O)CC3)CC2)C1 (centres unmarked) [P-251, 3-(4-((1-(2-(4-(5-acetyl-3-(7-(difluoromethyl)-6-(1-methyl-1H-pyrazol-4-yl)-3,4-dihydroquinolin-1(2H)-yl)-4,5,6,7-tetrahydro-1H-pyrazolo[4,3-c]pyridin-1-yl)piperidin-1-yl)ethyl)piperidin-4-yl)ethynyl)-3-methyl-2-oxo-2,3-dihydro-1H-benzo[d]imidazol-1-yl)piperidine-2,6-dione]	0.1 nM	–	inhibition at 0.01 µM (P300): > 80%
CC(=O)N1CCc2c(c(N3CCCc4cc(-c5cnn(C)c5)c(C(F)F)cc43)nn2C2CCN(C(=O)CC3CCN(c4ccc(C(=O)NC5CCC(=O)NC5=O)c5ncccc45)CC3)CC2)C1 (centres unmarked) [P-256, 5-(4-(2-(4-(5-acetyl-3-(7-(difluoromethyl)-6-(1-methyl-1H-pyrazol-4-yl)-3,4-dihydroquinolin-1(2H)-yl)-4,5,6,7-tetrahydro-1H-pyrazolo[4,3-c]pyridin-1-yl)piperidin-1-yl)-2-oxoethyl)piperidin-1-yl)-N-(2,6-dioxopiperidin-3-yl)quinoline-8-carboxamide]	1.3 nM	> 80%	–
CNC(=O)N1CCc2c(c(N3CCCc4cc(-c5cnn(CC(=O)NCCOCCC(=O)N[C@H](C(=O)N6C[C@H](O)C[C@H]6C(=O)NCc6ccc(-c7scnc7C)cc6)C(C)(C)C)c5)c(C(F)F)cc43)nn2C2CCOCC2)C1 [P-074, 3-(7-(difluoromethyl)-6-(1-(2-((2-(3-(((S)-1-((2S,4R)-4-hydroxy-2-((4-(4-methylthiazol-5-yl)benzyl)carbamoyl)pyrrolidin-1-yl)-3,3-dimethyl-1-oxobutan-2-yl)amino)-3-oxopropoxy)ethyl)amino)-2-oxoethyl)-1H-pyrazol-4-yl)-3,4-dihydroquinolin-1(2H)-yl)-N-methyl-1-(tetrahydro-2H-pyran-4-yl)-1,4,6,7-tetrahydro-5H-pyrazolo[4,3-c]pyridine-5-carboxamide]	–	–	IC50 ([1]; Table 3): > 10000 nM; inhibition at 0.01 µM (P300; p300, 10 nM, Table 3): < 20%
CC(=O)N1CCc2c(c(N3CCCc4cc(-c5cnn(C)c5)c(C(F)F)cc43)nn2C2CCN(CCN3CCC(CCNc4cccc5c4C(=O)N(C4CCC(=O)NC4=O)C5=O)CC3)CC2)C1 (centres unmarked) [P-188, 4-((2-(1-(2-(4-(5-acetyl-3-(7-(difluoromethyl)-6-(1-methyl-1H-pyrazol-4-yl)-3,4-dihydroquinolin-1(2H)-yl)-4,5,6,7-tetrahydro-1H-pyrazolo[4,3-c]pyridin-1-yl)piperidin-1-yl)ethyl)piperidin-4-yl)ethyl)amino)-2-(2,6-dioxopiperidin-3-yl)isoindoline-1,3-dione]	2.3 nM	–	inhibition at 0.01 µM (P300): > 80%
CNC(=O)N1CCc2c(c(N3CCCc4cc(-c5cnn(C)c5)c(C(F)F)cc43)nn2C2CCN(C(=O)CCCCCCn3c(=O)n(C4CCC(=O)NC4=O)c4ccccc43)CC2)C1 (centres unmarked) [P-106, 3-(7-(difluoromethyl)-6-(1-methyl-1H-pyrazol-4-yl)-3,4-dihydroquinolin-1(2H)-yl)-1-(1-(7-(3-(2,6-dioxopiperidin-3-yl)-2-oxo-2,3-dihydro-1H-benzo[d]imidazol-1-yl)heptanoyl)piperidin-4-yl)-N-methyl-1,4,6,7-tetrahydro-5H-pyrazolo[4,3-c]pyridine-5-carboxamide]	–	–	IC50 ([1]; Table 3): 24.2 nM; Degradation (10 nM) (P300; p300, 10 nM, Table 3): B (B: 50% ≤ Degradation < 80%)
